In PMC6425950 (Bioorganic & medicinal chemistry, 2019):

Test system: HCV genotype 1b RNA replication in Huh-7 cells (subgenomic HCV replicon)
Experiment: HCV subgenomic replicon assay, inhibition of HCV RNA replication
Type: cell-based, Hepatitis C virus
Conditions: HCV genotype 1b replicon, Huh-7 cells

| SMILES | anti-HCV activity: none at concentration up to |
| --- | --- |
| CC(C)OC(=O)[C@H](C)NP(=O)(OC[C@H]1O[C@@H](n2cnc3c(=O)[nH]c(N)nc32)[C@](F)(Cl)[C@@H]1O)Oc1ccccc1 (stereo partly drawn) [Compound 50, Isopropyl ((((2R,3R,4R,5R)-5-(2-amino-6-oxo-1,6-dihydro-9H-purin-9-yl)-4-chloro-4-fluoro-3-hydroxytetrahydrofuran-2-yl)methoxy)(phenoxy)phosphoryl)-L-alaninate] | > 10 µM |
| Nc1nc2c(ncn2[C@@H]2O[C@H](CO)[C@@H](O)[C@@]2(F)Cl)c(=O)[nH]1 [Compound 48, 2-Amino-9-((2R,3R,4R,5R)-3-chloro-3-fluoro-4-hydroxy-5-(hydroxymethyl)tetrahydrofuran-2-yl)-1,9-dihydro-6H-purin-6-one] | > 10 µM |
| Nc1nc2c(ncn2[C@@H]2O[C@H](CO)[C@@H](O)[C@@]2(F)Br)c(=O)[nH]1 [Compound 49, 2-amino-9-((2R,3R,4R,5R)-3-bromo-3-fluoro-4-hydroxy-5-(hydroxymethyl)tetrahydrofuran-2-yl)-1,9-dihydro-6H-purin-6-one] | > 10 µM |
| CC(C)OC(=O)[C@H](C)N[P@](=O)(OC[C@H]1O[C@@H](n2cnc3c(=O)[nH]c(N)nc32)[C@](F)(Br)[C@@H]1O)Oc1ccccc1 [Compound 51, Isopropyl ((((2R,3R,4R,5R)-5-(2-amino-6-oxo-1,6-dihydro-9H-purin-9-yl)-4-bromo-4-fluoro-3-hydroxytetrahydrofuran-2-yl)methoxy)(phenoxy)phosphoryl)-L-alaninate] | > 10 µM |

Same assay, conditions: HCV replicon; statement in conclusion

| SMILES | anti-HCV activity (in words) |
| --- | --- |
| CC(C)OC(=O)[C@H](C)NP(=O)(OC[C@H]1O[C@@H](n2ccc(=O)[nH]c2=O)[C@](F)(Br)[C@@H]1O)Oc1ccccc1 (stereo partly drawn) [Compound 20, Isopropyl ((((2R,3R,4R,5R)-4-bromo-5-(2,4-dioxo-3,4-dihydropyrimidin-1(2H)-yl)-4-fluoro-3-hydroxytetrahydrofuran-2-yl)methoxy)(phenoxy)phosphoryl)-L-alaninate] | low to sub-micromolar range |
| CC(C)OC(=O)[C@H](C)NP(=O)(OC[C@H]1O[C@@H](n2cnc3c(N)ncnc32)[C@](F)(Cl)[C@@H]1O)Oc1ccccc1 (stereo partly drawn) [Compound 42, Isopropyl ((((2R,3R,4R,5R)-5-(6-amino-9H-purin-9-yl)-4-chloro-4-fluoro-3-hydroxytetrahydrofuran-2-yl)methoxy) (phenoxy)phosphoryl)-L-alaninate] | low to sub-micromolar range |
| CC(C)OC(=O)[C@H](C)NP(=O)(OC[C@H]1O[C@@H](n2ccc(=O)[nH]c2=O)[C@](F)(Cl)[C@@H]1O)Oc1ccccc1 (stereo partly drawn) [Compound 19, Isopropyl ((((2R,3R,4R,5R)-4-chloro-5-(2,4-dioxo-3,4-dihydropyrimidin-1(2H)-yl)-4-fluoro-3-hydroxytetrahydrofuran-2-yl)methoxy)(phenoxy)phosphoryl)-L-alaninate] | low to sub-micromolar range |
| CC(C)OC(=O)[C@H](C)NP(=O)(OC[C@H]1O[C@@H](n2ccc(N)nc2=O)[C@](F)(Br)[C@@H]1O)Oc1ccccc1 (stereo partly drawn) [Compound 32, Isopropyl ((((2R,3R,4R,5R)-5-(4-amino-2-oxopyrimidin-1(2H)-yl)-4-bromo-4-fluoro-3-hydroxytetrahydrofuran-2-yl)methoxy)(phenoxy)phosphoryl)-L-alaninate] | low to sub-micromolar range |
| CC(C)OC(=O)[C@H](C)NP(=O)(OC[C@H]1O[C@@H](n2ccc(N)nc2=O)[C@](F)(Cl)[C@@H]1O)Oc1ccccc1 (stereo partly drawn) [Compound 35, Isopropyl ((((2R,3R,4R,5R)-5-(4-amino-2-oxopyrimidin-1(2H)-yl)-4-chloro-4-fluoro-3-hydroxytetrahydrofuran-2-yl)methoxy) (phenoxy)phosphoryl)-L-alaninate] | low to sub-micromolar range |
| Nc1ccn([C@@H]2O[C@H](CO)[C@@H](O)[C@@]2(F)Br)c(=O)n1 [Compound 27, 4-Amino-1-((2R,3R,4R, 5R)-3-bromo-3-fluoro-4-hydroxy-5-(hydroxymethyl)tetrahydrofuran-2-yl)pyrimidin-2(lH)-one] | low to sub-micromolar range |

Same assay, conditions: Hepatitis C virus, GETYPE1B, Huh-7, read-out: Anti-HCV activity EC90

| SMILES | EC90 |
| --- | --- |
| CC(C)OC(=O)[C@H](C)NP(=O)(OC[C@H]1O[C@@H](n2cnc3c(N)ncnc32)[C@](F)(Br)[C@@H]1O)Oc1ccccc1 (stereo partly drawn) [Compound 43, Isopropyl ((((2R,3R,4R,5R)-5-(6-amino-9H-purin-9-yl)-4-bromo-4-fluoro-3-hydroxytetrahydrofuran-2-yl)methoxy)(phenoxy)phosphoryl)-L-alaninate] | > 10 µM |
| Nc1ncnc2c1ncn2[C@@H]1O[C@H](CO)[C@@H](O)[C@@]1(F)Cl [Compound 40, (2R, 3R, 4R, 5R)-5-(6-Amino-9H-purin-9-yl)-4-chloro-4-fluoro-2-(hydroxymethyl)tetrahydrofuran-3-ol] | > 10 µM |
| Nc1ccn([C@@H]2O[C@H](CO)[C@@H](O)[C@@]2(F)Cl)c(=O)n1 [Compound 26, 4-Amino-1-((2R,3R,4R,5R)-3-chloro-3-fluoro-4-hydroxy-5-(hydroxymethyl)tetrahydrofuran-2-yl)pyrimidin-2(1H)-one] | > 10 µM |
| CC(C)OC(=O)[C@H](C)NP(=O)(OC[C@H]1O[C@@H](n2cnc3c(=O)[nH]c(N)nc32)[C@](F)(Cl)[C@@H]1O)Oc1ccccc1 (stereo partly drawn) [Compound 50, Isopropyl ((((2R,3R,4R,5R)-5-(2-amino-6-oxo-1,6-dihydro-9H-purin-9-yl)-4-chloro-4-fluoro-3-hydroxytetrahydrofuran-2-yl)methoxy)(phenoxy)phosphoryl)-L-alaninate] | > 10 µM |
| Nc1nc2c(ncn2[C@@H]2O[C@H](CO)[C@@H](O)[C@@]2(F)Br)c(=O)[nH]1 [Compound 49, 2-amino-9-((2R,3R,4R,5R)-3-bromo-3-fluoro-4-hydroxy-5-(hydroxymethyl)tetrahydrofuran-2-yl)-1,9-dihydro-6H-purin-6-one] | > 10 µM |
| Nc1ncnc2c1ncn2[C@@H]1O[C@H](CO)[C@@H](O)[C@@]1(F)Br [Compound 41, (2R, 3R, 4R, 5R)-5-(6-Amino-9H-purin-9-yl)-4-bromo-4-fluoro-2-(hydroxymethyl)tetrahydrofuran-3-ol] | > 10 µM |
